Measured values as given in the supplement of paper PMC10307832.

How the values were obtained:
Experiment in all cases: relative viability (nuclei count vs DMSO), 5 days (fraction); higher = more cells survive
DM3189 + Trametinib = compound: C1CN(CCN1)C2=CC=C(C=C2)C3=CN4C(=C(C=N4)C5=CC=NC6=CC=CC=C56)N=C3 [DM3189] + CC(=O)Nc1cccc(-n2c(=O)n(C3CC3)c(=O)c3c(Nc4ccc(I)cc4F)n(C)c(=O)c(C)c32)c1 [Trametinib] (partner 0.02 µM)
Procedure, shortened: (§1)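 Relative viability divides the nuclei count in treated wells by that in vehicle wells. Lung cancer cell lines were seeded in 1536-well plates, dosed by pin tool the next day, and fixed and stained after 5 days in one step with final 0.05% Triton X-100, 1% formaldehyde and 1 ug/ml Hoechst. Dosing was a single drug or a fixed anchor-drug dose plus five library-drug doses (not always all listed) in √10 steps, and values are medians of duplicate plates imaged at 4×.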

DM3189 + Navitoclax = compound: C1CN(CCN1)C2=CC=C(C=C2)C3=CN4C(=C(C=N4)C5=CC=NC6=CC=CC=C56)N=C3 [DM3189] + CC1(C)CCC(c2ccc(Cl)cc2)=C(CN2CCN(c3ccc(C(=O)NS(=O)(=O)c4ccc(N[C@H](CCN5CCOCC5)CSc5ccccc5)c(S(=O)(=O)C(F)(F)F)c4)cc3)CC2)C1 [Navitoclax] (partner 0.5 µM)
Procedure, shortened: as §1

DM3189 + OSI-027 = compound: C1CN(CCN1)C2=CC=C(C=C2)C3=CN4C(=C(C=N4)C5=CC=NC6=CC=CC=C56)N=C3 [DM3189] + COc1cccc2cc(-c3nc([C@H]4CC[C@H](C(=O)O)CC4)n4ncnc(N)c34)[nH]c12 [OSI-027] (partner 0.5 µM)
Procedure, shortened: as §1

DM3189 + Tozasertib = compound: C1CN(CCN1)C2=CC=C(C=C2)C3=CN4C(=C(C=N4)C5=CC=NC6=CC=CC=C56)N=C3 [DM3189] + Cc1cc(Nc2cc(N3CCN(C)CC3)nc(Sc3ccc(NC(=O)C4CC4)cc3)n2)n[nH]1 [Tozasertib] (partner 0.1 µM)
Procedure, shortened: as §1

DM3189 + Olaparib = compound: C1CN(CCN1)C2=CC=C(C=C2)C3=CN4C(=C(C=N4)C5=CC=NC6=CC=CC=C56)N=C3 [DM3189] + O=C(c1cc(Cc2n[nH]c(=O)c3ccccc23)ccc1F)N1CCN(C(=O)C2CC2)CC1 [Olaparib] (partner 8 µM)
Procedure, shortened: as §1

Cell Line | relative viability (DM3189 + Trametinib; first compound 0.08 µM) | relative viability (DM3189 + Trametinib; first compound 0.253 µM) | relative viability (DM3189 + Trametinib; first compound 0.8 µM) | relative viability (DM3189 + Trametinib; first compound 2.53 µM) | relative viability (DM3189 + Navitoclax; first compound 0.08 µM) | relative viability (DM3189 + Navitoclax; first compound 0.253 µM) | relative viability (DM3189 + Navitoclax; first compound 0.8 µM) | relative viability (DM3189 + Navitoclax; first compound 2.53 µM) | relative viability (DM3189 + OSI-027; first compound 0.08 µM) | relative viability (DM3189 + OSI-027; first compound 0.253 µM) | relative viability (DM3189 + OSI-027; first compound 0.8 µM) | relative viability (DM3189 + OSI-027; first compound 2.53 µM) | relative viability (DM3189 + Tozasertib; first compound 0.08 µM) | relative viability (DM3189 + Tozasertib; first compound 0.253 µM) | relative viability (DM3189 + Tozasertib; first compound 0.8 µM) | relative viability (DM3189 + Tozasertib; first compound 2.53 µM) | relative viability (DM3189 + Olaparib; first compound 0.08 µM) | relative viability (DM3189 + Olaparib; first compound 0.253 µM) | relative viability (DM3189 + Olaparib; first compound 0.8 µM) | relative viability (DM3189 + Olaparib; first compound 2.53 µM)
LXF-289 | 0.74 | 0.686 | 0.692 | 0.694 | 0.983 | 0.927 | 0.932 | 1.07 | 1.01 | 0.747 | 0.746 | 0.891 | 0.208 | 0.196 | 0.166 | 0.236 | 1.08 | 1.06 | 1.06 | 1.11
NCI-H23 | 0.409 | 0.352 | 0.324 | 0.442 | 0.917 | 0.794 | 0.742 | 0.741 | 0.664 | 0.594 | 0.457 | 0.577 | 0.291 | 0.389 | 0.296 | 0.376 | 0.253 | 0.305 | 0.233 | 0.294
NCI-H322M | 0.532 | 0.518 | 0.517 | 0.511 | 1.33 | 1.25 | 1.28 | 1.52 | 0.622 | 0.596 | 0.541 | 0.506 | 0.481 | 0.427 | 0.448 | 0.404 | 0.938 | 0.793 | 0.743 | 0.768
NCI-H441 | 0.563 | 0.536 | 0.508 | 0.407 | 0.567 | 0.431 | 0.615 | 0.62 | 0.747 | 0.602 | 0.451 | 0.486 | 0.943 | 0.57 | 0.681 | 0.738 | 0.689 | 0.485 | 0.663 | 0.583
NCI-H460 | 0.341 | 0.242 | 0.154 | 0.241 | 1.2 | 1.18 | 0.996 | 0.904 | 1.12 | 0.72 | 0.598 | 0.549 | 0.384 | 0.393 | 0.12 | 0.277 | 0.449 | 0.415 | 0.325 | 0.619
NCI-H520 | 0.672 | 0.413 | 0.43 | 0.321 | 1 | 0.728 | 0.752 | 0.628 | 0.281 | 0.232 | 0.237 | 0.232 | 0.491 | 0.33 | 0.364 | 0.313 | 0.348 | 0.339 | 0.293 | 0.233
NCI-H596 | 0.814 | 0.842 | 0.901 | 0.847 | 1.01 | 1.09 | 0.917 | 1.06 | 0.799 | 0.746 | 0.615 | 0.643 | 0.826 | 0.869 | 0.937 | 0.92 | 0.588 | 0.646 | 0.702 | 0.747
NCI-H647 | 0.488 | 0.399 | 0.378 | 0.412 | 1.26 | 0.959 | 0.767 | 0.657 | 0.724 | 0.579 | 0.585 | 0.528 | 0.259 | 0.212 | 0.408 | 0.235 | 0.459 | 0.492 | 0.368 | 0.163
NCI-H727 | 0.416 | 0.433 | 0.445 | 0.47 | 0.461 | 0.373 | – | 0.511 | 0.471 | 0.606 | 0.486 | 0.583 | 0.648 | 0.568 | 0.654 | 0.578 | 0.696 | 0.69 | 0.649 | 0.764
NCI-H838 | 0.57 | 0.454 | 0.388 | 0.496 | 1.15 | 1.09 | 0.904 | 1.23 | 0.427 | 0.376 | 0.312 | 0.357 | 0.256 | 0.249 | 0.255 | 0.281 | 0.871 | 0.711 | 0.543 | 0.556
NCI-H1355 | 0.408 | 0.429 | 0.33 | 0.421 | 0.926 | 0.953 | 0.819 | 0.951 | 0.482 | 0.36 | 0.366 | 0.39 | 0.547 | 0.55 | 0.513 | 0.438 | 0.723 | 0.687 | 0.689 | 0.785
NCI-H1395 | 0.902 | 1.03 | – | 1.01 | 1.22 | 0.958 | 0.74 | 1.17 | 0.709 | 0.572 | 0.54 | 0.6 | 0.69 | 0.689 | 0.697 | 0.799 | 0.421 | 0.463 | – | 0.39
NCI-H1437 | 0.63 | 0.577 | 0.65 | 0.696 | 0.994 | 1.1 | 1.06 | 1.05 | 0.895 | 0.862 | 0.906 | 1.08 | 0.396 | 0.369 | 0.379 | 0.397 | 0.627 | 0.633 | 0.609 | 0.592
NCI-H1650 | 0.749 | 0.608 | 0.677 | 0.738 | 1.24 | 1.11 | 1.21 | 1.13 | 0.715 | 0.658 | 0.468 | 0.524 | 0.322 | 0.362 | 0.389 | 0.377 | 0.801 | 0.712 | 0.738 | 0.838
NCI-H1651 | 0.867 | 0.793 | 0.813 | 0.937 | 1.17 | 1.13 | 1.13 | 0.928 | 0.783 | 0.626 | 0.864 | 0.727 | 0.704 | 0.722 | 0.628 | 0.649 | 0.191 | 0.179 | 0.168 | 0.177
